Results as given in paper PMC10222464, “Pharmacokinetic Study and Metabolite Identification of CAM106 in Rats by Validated UHPLC-MS/MS” (Pharmaceuticals, 2023).
“Also recorded” adds a separate entry of the source. Where two headings read alike, the source gives them in different places.

Key:
[1] = in vivo
influenza virus B [2] = experiment: Anti-influenza activity (IC50) against influenza virus B; type: cell-based; conditions: CAM106 versus rupestonic acid
[3] = Pharmacokinetic study in rats after oral and intravenous administration (UHPLC-MS/MS, non-compartment analysis); type: in vivo, Sprague Dawley (SD) rats; conditions: for MRT inf: read-out: MRT0–inf; for MRT last: read-out: MRT0–t
Procedure: By using the UHPLC–MS/MS method, we successfully performed accurate quantification of CAM106 in rat plasma, and a non-compartment analysis was used to characterize the pharmacokinetic profiles of CAM106. […] After intravenous administration, T1/2 and Vd were 1.34 ± 0.64 h and 16624.89 ± 8171.11 mL/kg, respectively. […] The mean retention times after oral and intravenous administration were 3.42 ± 0.73 h and 0.63 ± 0.17 h, respectively.
All twelve male Sprague Dawley (SD) rats (weight 200 ± 20 g) were purchased from Xinjiang Medical University (Xinjiang, China). […] For the pharmacokinetic study, twelve rats were randomized into two groups (n = 6). The rats were fasted overnight before the experiment but had free access to water. […] For the oral administration group, CAM106 was intragastrically administered to the rats at a dose of 180 mg/kg. Approximately 0.2 mL of blood was drawn from the ophthalmic veins at 0, 0.25, 0.5, 0.75, 1, 1.5, 2, 4, and 10 h. For intravenous administration, CAM106 was injected into the tail at a dose of 18 mg/kg. About 0.2 mL of blood (from the ophthalmic veins) was drawn at 0, 0.25, 0.5, 0.75, 1, 1.5, 2, 4, and 6 h. After that, 1.5 mL polyethylene tubes containing EDTA were used to collect the plasma. The blood samples were centrifuged at 19,800× g for 7 min after which the supernatant was collected and stored at −80 °C for further analysis.
A 10 µL volume of methanol was added to 100 µL of each plasma sample and vortexed for 3 s (3000 rpm). Then, the mixtures were vortexed for three seconds while receiving 10 µL of internal standard (3000 rpm). A volume of 350 µL acetonitrile was added to 100 µL of each plasma sample. The mixtures were vortexed for 1 min and centrifuged for 7 min at 19800 g. A 100 µL aliquot of the supernatant was stored and 5 µL was subjected to UHPLC–MS/MS analysis.
For the pharmacokinetic study, the chromatographic separation was carried out on an Acquity UHPLC BEH C18 column (2.1 × 75 mm, 1.7 µm) with a filter. The column oven was set at 35 °C. The mobile phase aqueous solution (A, containing 0.1% formic acid) and acetonitrile (B) worked within 0–3.5 min with 60% B. The injection volume was set at 5 µL, with a flow rate of 0.2 mL/min. By using the parallel reaction monitoring (PRM) mode, the CAM106 and internal standard were found. The following adjustments were made to the electrospray ionization (ESI) source parameters: high collision dissociation cell (HCD) energy, 27 eV (for CAM106) and 42 eV (for the IS); capillary temperature, 320 °C; S-lens RF level, 55 V; automatic gain control (AGC) target, 1e^6; maximum IT, 100 ms; spray voltage, 3.2 kV.

rats = experiment: Observation of toxicity / adverse reactions in rats after dosing; type: in vivo, Sprague Dawley (SD) rats
[4] = Stability of CAM106 QC samples (rat plasma, stock solution) under different conditions; type: physicochemical; conditions: for Accuracy, autosampler stability 0 h / Accuracy, autosampler stability 4 h / Accuracy, autosampler stability 8 h / Accuracy, autosampler stability 12 h: autosampler 10 °C; for Accuracy, room temperature: room temperature 12 h; for Accuracy, stock solution 15 days: stock solution 15 days at −20 °C; for Accuracy, thaw: three freeze–thaw cycles; for Accuracy, long-term stability 1 day / Accuracy, long-term stability 7 days: −80 °C
Procedure: Three quality control (QC) concentrations of CAM106 were used for stability testing under five conditions: in the autosampler for 0, 4, 8, and 12 h; long-term stability at −80 °C for 1 and 7 days; stock solution for 15 days at −20 °C; at room temperature for 12 h; and three freeze–thaw cycles.
The stability tests were conducted with rat plasma containing CAM106 through the analysis of 3 replicates at 10.64, 106.38, and 638.30 ng/mL. This typically comprises short-term stability (room temperature), long-term stability (−80 °C), post-preparation stability (autosampler, 10 °C), and freeze–thaw cycle stability (room temper and −80 °C).

Water solubility = type: physicochemical
H3N2 = test system: H3N2; set-up: method as in PMID 22625417; conditions: read-out: IC50 for H3N2 virus; cited from earlier work
H1N1 = test system: H1N1; set-up: method as in PMID 22625417; conditions: read-out: IC50 for H1N1 virus; cited from earlier work
influenza virus B [5] = conditions: cited from earlier work
Kun Ming mice = test system: Kun Ming mice; set-up: method as in earlier work; conditions: 25 mg/kg; cited from earlier work
[6] = Metabolite identification in rat plasma, urine and feces by high-resolution mass spectrometry; conditions: √ found, × not found
[7] = IV 18.0 mg/kg, n = 6, mean ± SD
[8] = PO 180.0 mg/kg, n = 6, mean ± SD
[9] = male, Sprague Dawley, rat, plasma, IV 18.0 mg/kg, n = 6, mean ± SD
[10] = male, Sprague Dawley, rat, plasma, PO 180.0 mg/kg, n = 6, mean ± SD

## C=C(C(=O)NCC1=CC(c2ccc(F)cc2)NO1)C1CCC(C)C2CC(=O)C(C)=C2C1 (stereo not drawn) [M8]
[1]
  Detected in rat feces (F): √
  Detected in rat urine (U): ×

## C=C(C(N)=O)C1CCC(C)C2CC(=O)C(C)=C2C1 (stereo not drawn) [M1]
[1]
  Detected in rat feces (F): √
  Detected in rat urine (U): √

## C=C(C(=O)NCc1cc(-c2ccc(F)cc2)no1)C1CC[C@H](C(=O)O)C2CC(=O)C(C)=C2C1 (stereo partly drawn) [M5]
[1]
  Detected in rat feces (F): ×
  Detected in rat urine (U): √

## C=C(C(=O)NCc1cc(-c2ccc(F)cc2)no1)C1CCC(C)C2CC(=O)C(C)=C2C1 (stereo not drawn) [CAM106]
Influenza virus B [2]
  IC50 against influenza virus B relative to rupestonic acid: about 35 fold
[3]; [7]
  AUC0–inf: 1287.93 ± 549.25 h·(ng/mL)
  AUC0–t: 1255.32 ± 544.72 h·(ng/mL)
[3]; [8]
  AUC0–inf: 294.19 ± 221.69 h·(ng/mL)
  AUC0–t: 200.94 ± 87.45 h·(ng/mL)
  Vd: 4,605,807.05 ± 2,044,928.13 mL/kg
[3]; [9]
  clearance: 277 mL/min/kg
  half-life: 80.4 ± 38.4 min
  MRT inf: 0.79 ± 0.23 h
  MRT last: 0.63 ± 0.17 h
[3]; male, Sprague Dawley, rat, plasma, IV 18.0 mg/kg, n = 6, mean ± SD, read-out: Vd
  Vd: 27.4 L/kg
[3]; [10]
  Cmax: 61 ± 30.8 ng/mL
  Tmax: 1.21 ± 0.51 h
  half-life: 274 ± 139 min
  MRT inf: 6.69 ± 3.57 h
  MRT last: 3.42 ± 0.73 h
[3]; male, Sprague Dawley, rat, plasma, oral, 180 mg/kg, PO 180.0 mg/kg versus IV 18.0 mg/kg, read-out: F (%), absolute (oral) bioavailability
  bioavailability: ~1.6%
[3]; male, Sprague-Dawley, rat, plasma, IV 18.0 mg/kg, n = 6, mean ± SD
  Cmax: 2310 ± 1000 ng/mL
rats; 180 mg/kg oral and 18 mg/kg intravenous for 3 days
  Signs of toxicity: no signs of toxicity were observed
rats; oral 180 mg/kg or intravenous 18 mg/kg
  Adverse reactions or acute toxicity: No adverse reactions or acute toxicity were observed
[4]; 10.64 ng/mL
  Accuracy, autosampler stability 0 h: 95.02
  Accuracy, autosampler stability 4 h: 93.52
  Accuracy, autosampler stability 8 h: 91.35
  Accuracy, autosampler stability 12 h: 100.38
  Accuracy, room temperature: 96.71
  Accuracy, stock solution 15 days: 91.26
  Accuracy, thaw: 97.21
  Accuracy, long-term stability 1 day: 97.93
  Accuracy, long-term stability 7 days: 103.20
[4]; 106.38 ng/mL
  Accuracy, autosampler stability 0 h: 106.05
  Accuracy, autosampler stability 4 h: 101.96
  Accuracy, autosampler stability 8 h: 101.46
  Accuracy, autosampler stability 12 h: 98.88
  Accuracy, room temperature: 101.12
  Accuracy, stock solution 15 days: 108.39
  Accuracy, thaw: 106.13
  Accuracy, long-term stability 1 day: 104.02
  Accuracy, long-term stability 7 days: 94.03
[4]; 638.30 ng/mL
  Accuracy, autosampler stability 0 h: 100.00
  Accuracy, autosampler stability 4 h: 102.58
  Accuracy, autosampler stability 8 h: 97.09
  Accuracy, autosampler stability 12 h: 96.48
  Accuracy, room temperature: 102.21
  Accuracy, stock solution 15 days: 95.27
  Accuracy, thaw: 100.09
  Accuracy, long-term stability 1 day: 103.73
  Accuracy, long-term stability 7 days: 90.36
Water solubility
  Solubility in water: poorly soluble in water; also recorded: weak water solubility
H3N2
  IC50: 1090 nM
H1N1
  IC50: 970 nM
Influenza virus B [5]; read-out: IC50 for B virus
  IC50: 3.25 µM
Kun Ming mice
  Toxic response: no toxic response
[6]; rat feces 0–48 h after administration of CAM106
  Detected in rat feces (F): √
[6]; rat urine 0–48 h after administration of CAM106
  Detected in rat urine (U): √

## C=C(C(=O)O)[C@H]1CC[C@H](C)[C@@H]2CC(=O)C(C)=C2C1 [rupestonic acid, reference compound]
Influenza virus B [5]; read-out: IC50 for virus B
  IC50: 116 µM

## C=C(C(=O)N(C)C)C1CCC(C)C2CC(=O)C(C)=C2C1 (stereo not drawn) [M4]
[1]
  Detected in rat feces (F): √
  Detected in rat urine (U): ×
